Data published in PubChem BioAssay AID624091 (Broad Institute, 2012).
Activity calls are given as the source filed them. How the calls were made is not given here.

Key:
Experiment in all cases: selectivity of inhibitors across GSK3a/b, CDKs – biochemical, selected compounds, dry powder samples, selectivity assay for GSK3beta inhibitor project, dose response (AID 624091)
[1] = target: Cyclin-dependent kinase 2 (Homo sapiens) (UniProt P24941); details: Carna mobility shift kinase assay, LabChip, panel
[2] = target: Glycogen synthase kinase-3 alpha (Homo sapiens) (UniProt P49840); details: Carna mobility shift kinase assay, LabChip, panel; GSK3a
Sequence of Glycogen synthase kinase-3 alpha (Homo sapiens) (P49840 whole entry, looked up): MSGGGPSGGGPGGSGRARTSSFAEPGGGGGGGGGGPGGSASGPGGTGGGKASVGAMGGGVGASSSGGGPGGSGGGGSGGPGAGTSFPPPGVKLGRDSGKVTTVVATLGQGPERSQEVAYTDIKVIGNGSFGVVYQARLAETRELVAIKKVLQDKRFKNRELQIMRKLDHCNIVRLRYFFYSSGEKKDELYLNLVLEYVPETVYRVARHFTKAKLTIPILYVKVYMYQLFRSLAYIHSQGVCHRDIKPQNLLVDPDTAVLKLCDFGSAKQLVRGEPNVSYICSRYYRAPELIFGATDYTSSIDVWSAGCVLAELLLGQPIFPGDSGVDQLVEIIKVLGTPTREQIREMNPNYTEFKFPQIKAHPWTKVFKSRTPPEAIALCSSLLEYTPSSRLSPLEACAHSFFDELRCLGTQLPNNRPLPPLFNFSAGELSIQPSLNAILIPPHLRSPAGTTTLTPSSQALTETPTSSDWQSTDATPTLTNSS

[3] = target: Cyclin-dependent kinase 1 (Homo sapiens) (UniProt P06493); details: Carna mobility shift kinase assay, LabChip, panel; CDC2/CycB1
Sequence of Cyclin-dependent kinase 1 (Homo sapiens) (P06493 whole entry, looked up): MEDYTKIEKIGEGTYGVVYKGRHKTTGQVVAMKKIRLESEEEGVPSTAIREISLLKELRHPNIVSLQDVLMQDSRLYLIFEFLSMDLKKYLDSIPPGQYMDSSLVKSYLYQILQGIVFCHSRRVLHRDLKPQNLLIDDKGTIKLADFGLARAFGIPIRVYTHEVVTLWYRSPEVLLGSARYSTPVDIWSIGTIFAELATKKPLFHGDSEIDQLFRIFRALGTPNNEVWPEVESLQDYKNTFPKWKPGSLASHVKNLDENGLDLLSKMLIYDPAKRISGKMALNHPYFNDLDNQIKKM

[4] = target: Glycogen synthase kinase-3 beta (Homo sapiens) (UniProt P49841); details: Carna mobility shift kinase assay, LabChip, panel; GSK3b
Sequence of Glycogen synthase kinase-3 beta (Homo sapiens) (P49841 whole entry, looked up): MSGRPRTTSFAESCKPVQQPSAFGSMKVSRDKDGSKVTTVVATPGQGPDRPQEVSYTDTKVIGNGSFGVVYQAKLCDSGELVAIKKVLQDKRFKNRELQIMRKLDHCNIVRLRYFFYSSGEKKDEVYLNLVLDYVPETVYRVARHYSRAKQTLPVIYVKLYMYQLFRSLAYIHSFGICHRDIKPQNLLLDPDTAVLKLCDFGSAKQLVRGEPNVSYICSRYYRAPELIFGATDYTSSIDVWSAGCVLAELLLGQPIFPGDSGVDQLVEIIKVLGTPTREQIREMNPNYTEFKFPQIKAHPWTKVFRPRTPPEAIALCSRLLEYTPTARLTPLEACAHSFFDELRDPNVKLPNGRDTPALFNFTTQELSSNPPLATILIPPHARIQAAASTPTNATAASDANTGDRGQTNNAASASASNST

[5] = target: Cyclin-dependent kinase 5 (Homo sapiens) (UniProt Q00535); details: Carna mobility shift kinase assay, LabChip, panel; CDK5/p25
Sequence of Cyclin-dependent kinase 5 (Homo sapiens) (Q00535 whole entry, looked up): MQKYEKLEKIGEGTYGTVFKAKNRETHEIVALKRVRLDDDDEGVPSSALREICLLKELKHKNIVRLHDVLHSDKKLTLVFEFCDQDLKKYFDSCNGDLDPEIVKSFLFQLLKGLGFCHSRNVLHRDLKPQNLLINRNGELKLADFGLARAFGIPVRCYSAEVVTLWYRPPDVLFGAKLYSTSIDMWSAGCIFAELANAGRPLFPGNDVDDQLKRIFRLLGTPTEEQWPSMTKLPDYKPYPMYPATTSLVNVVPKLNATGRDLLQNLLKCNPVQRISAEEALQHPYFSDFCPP

| SMILES | IC50 ([1]; CDK2/CycA2) | IC50 ([1]; CDK2/CycE1) | IC50 [2] | IC50 [3] | IC50 [4] | IC50 [5] |
| --- | --- | --- | --- | --- | --- | --- |
| Cc1[nH]nc2c1[C@@H](c1ccccc1C(F)(F)F)C1=C(CC(C)(C)CC1=O)N2 | 0.561 µM | 0.427 µM | 0.00779 µM | 0.839 µM | 0.0155 µM | 0.127 µM |
| Cc1[nH]nc2c1C(c1ccccc1C(F)(F)F)C1=C(CC(C)(C)CC1=O)N2 (stereo not drawn) | inactive | 0.808 µM | 0.0146 µM | inactive | 0.0268 µM | 0.223 µM |
| Cc1[nH]nc2c1[C@H](c1ccccc1C(F)(F)F)C1=C(CC(C)(C)CC1=O)N2 | > 10 µM (inactive) | > 10 µM (inactive) | inactive | > 10 µM (inactive) | inactive | > 10 µM (inactive) |
| COc1ccccc1C1C2=C(CC(C)(C)CC2=O)Nc2n[nH]c(C(F)(F)F)c21 (stereo not drawn) | inactive | inactive | 0.0234 µM | > 10 µM (inactive) | 0.0228 µM |  |

The next lines start with the values.

| IC50 ([1]; CDK2/CycA2) | IC50 ([1]; CDK2/CycE1) | IC50 [2] | IC50 [3] | IC50 [4] | IC50 [5] | SMILES |
| --- | --- | --- | --- | --- | --- | --- |
| inactive | inactive | 0.0132 µM | > 10 µM (inactive) | 0.0124 µM |  | COc1ccccc1[C@@H]1C2=C(CC(C)(C)CC2=O)Nc2n[nH]c(C(F)(F)F)c21 |
| > 10 µM (inactive) | > 10 µM (inactive) | 0.98 µM | > 10 µM (inactive) | 0.613 µM |  | COc1ccccc1[C@H]1C2=C(CC(C)(C)CC2=O)Nc2n[nH]c(C(F)(F)F)c21 |
